From ChEMBL document CHEMBL5653631, “A Potent and Selective ULK1 Inhibitor Suppresses Autophagy and Sensitizes Cancer Cells to Nutrient Stress” (iScience, 2018)

Legend:
[1] = target: Death-associated protein kinase 3 (Homo sapiens) (UniProt O43293); assay: Inhibition of human recombinant DAPK3 at 40 nM in presence of ATP by radiometric assay relative to control
[2] = target: BDNF/NT-3 growth factors receptor (Homo sapiens) (UniProt Q16620); assay: Inhibition of human recombinant TRKB at 40 nM in presence of ATP by radiometric assay relative to control
[3] = target: Platelet-derived growth factor receptor alpha (Homo sapiens) (UniProt P16234); assay: Inhibition of human recombinant PDGFRa at 40 nM related to control ULK1
Platelet-derived growth factor receptor alpha (Homo sapiens), sequence (P16234 whole entry): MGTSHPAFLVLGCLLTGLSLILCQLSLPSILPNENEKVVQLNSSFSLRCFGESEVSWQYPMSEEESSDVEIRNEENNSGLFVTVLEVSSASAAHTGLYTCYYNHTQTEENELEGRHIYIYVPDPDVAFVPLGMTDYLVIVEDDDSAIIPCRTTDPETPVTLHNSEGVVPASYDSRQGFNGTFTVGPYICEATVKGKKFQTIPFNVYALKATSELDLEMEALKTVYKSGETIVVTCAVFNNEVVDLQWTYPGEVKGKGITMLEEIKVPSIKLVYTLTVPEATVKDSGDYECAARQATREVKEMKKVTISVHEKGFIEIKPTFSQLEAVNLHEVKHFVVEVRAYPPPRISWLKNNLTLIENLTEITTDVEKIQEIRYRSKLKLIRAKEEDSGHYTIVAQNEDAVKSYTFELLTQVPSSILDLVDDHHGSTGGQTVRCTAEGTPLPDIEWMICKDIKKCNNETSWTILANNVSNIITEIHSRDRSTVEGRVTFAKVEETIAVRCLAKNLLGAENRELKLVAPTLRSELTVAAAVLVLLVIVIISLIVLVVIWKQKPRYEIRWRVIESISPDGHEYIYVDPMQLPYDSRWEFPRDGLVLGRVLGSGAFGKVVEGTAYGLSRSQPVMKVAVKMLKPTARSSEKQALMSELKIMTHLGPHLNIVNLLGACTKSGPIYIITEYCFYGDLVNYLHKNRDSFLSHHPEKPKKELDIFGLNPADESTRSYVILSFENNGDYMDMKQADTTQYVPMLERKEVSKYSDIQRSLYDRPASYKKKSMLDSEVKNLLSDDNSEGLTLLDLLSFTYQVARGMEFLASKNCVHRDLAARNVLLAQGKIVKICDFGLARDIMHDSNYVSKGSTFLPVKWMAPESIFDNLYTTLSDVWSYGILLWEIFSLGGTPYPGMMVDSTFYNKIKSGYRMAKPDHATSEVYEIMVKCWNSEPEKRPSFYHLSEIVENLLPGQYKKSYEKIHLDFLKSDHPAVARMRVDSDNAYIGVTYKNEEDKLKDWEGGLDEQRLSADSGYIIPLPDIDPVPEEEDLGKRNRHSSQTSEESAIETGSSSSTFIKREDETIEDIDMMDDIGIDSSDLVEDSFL

[4] = target: cAMP-dependent protein kinase catalytic subunit beta (Homo sapiens) (UniProt P22694); assay: Inhibition of human recombinant PKACbeta at 40 nM related to control ULK1
[5] = target: Protein kinase C theta type (Homo sapiens) (UniProt Q04759); assay: Inhibition of human recombinant PKCt at 40 nM related to control ULK1
Protein kinase C theta type (Homo sapiens), sequence (Q04759 whole entry, looked up): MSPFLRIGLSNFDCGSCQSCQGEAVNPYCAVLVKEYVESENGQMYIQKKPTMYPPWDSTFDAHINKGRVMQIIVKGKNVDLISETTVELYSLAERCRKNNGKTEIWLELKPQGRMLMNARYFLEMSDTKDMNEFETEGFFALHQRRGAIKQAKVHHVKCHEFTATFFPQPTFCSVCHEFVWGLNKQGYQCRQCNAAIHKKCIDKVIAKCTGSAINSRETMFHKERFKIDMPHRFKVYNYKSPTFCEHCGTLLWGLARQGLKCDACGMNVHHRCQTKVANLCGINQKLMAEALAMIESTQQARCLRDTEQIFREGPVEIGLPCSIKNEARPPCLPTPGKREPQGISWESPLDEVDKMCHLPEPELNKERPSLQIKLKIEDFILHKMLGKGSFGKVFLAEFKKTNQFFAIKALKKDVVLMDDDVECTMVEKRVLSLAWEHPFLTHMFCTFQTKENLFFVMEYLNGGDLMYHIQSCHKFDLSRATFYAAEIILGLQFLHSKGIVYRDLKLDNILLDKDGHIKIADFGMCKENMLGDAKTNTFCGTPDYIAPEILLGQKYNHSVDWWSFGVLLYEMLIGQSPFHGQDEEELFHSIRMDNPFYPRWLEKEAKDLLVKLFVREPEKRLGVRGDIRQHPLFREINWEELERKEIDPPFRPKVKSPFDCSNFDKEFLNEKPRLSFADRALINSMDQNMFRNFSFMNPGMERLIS

[6] = target: Fibroblast growth factor receptor 3 (Homo sapiens) (UniProt P22607); assay: Inhibition of human recombinant FGFR3 at 500 nM in presence of ATP by radiometric assay relative to control
Fibroblast growth factor receptor 3 (Homo sapiens), sequence (P22607 23-806 limits assumed): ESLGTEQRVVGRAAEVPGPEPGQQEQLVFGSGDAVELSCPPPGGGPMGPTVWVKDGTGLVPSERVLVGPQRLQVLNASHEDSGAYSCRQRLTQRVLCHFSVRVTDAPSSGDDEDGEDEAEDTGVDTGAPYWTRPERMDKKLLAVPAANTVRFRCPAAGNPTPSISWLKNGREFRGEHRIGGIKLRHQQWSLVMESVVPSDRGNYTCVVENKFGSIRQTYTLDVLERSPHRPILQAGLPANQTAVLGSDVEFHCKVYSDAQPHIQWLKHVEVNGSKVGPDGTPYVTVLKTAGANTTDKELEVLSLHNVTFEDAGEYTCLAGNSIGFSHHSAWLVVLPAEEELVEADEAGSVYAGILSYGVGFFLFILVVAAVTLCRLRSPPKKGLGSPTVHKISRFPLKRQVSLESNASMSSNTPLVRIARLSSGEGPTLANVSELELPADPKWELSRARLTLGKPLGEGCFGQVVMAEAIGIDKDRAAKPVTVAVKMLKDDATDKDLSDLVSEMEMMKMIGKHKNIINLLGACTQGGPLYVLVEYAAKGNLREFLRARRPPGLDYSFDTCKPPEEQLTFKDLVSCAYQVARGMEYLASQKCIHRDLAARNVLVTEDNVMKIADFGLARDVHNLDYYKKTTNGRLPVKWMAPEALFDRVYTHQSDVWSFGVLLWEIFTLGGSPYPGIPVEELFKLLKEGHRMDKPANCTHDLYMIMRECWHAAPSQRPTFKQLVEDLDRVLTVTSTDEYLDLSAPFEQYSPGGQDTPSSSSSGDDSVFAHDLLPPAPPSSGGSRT

[7] = target: Protein kinase C alpha type (Homo sapiens) (UniProt P17252); assay: Inhibition of human recombinant PKCa at 500 nM in presence of ATP by radiometric assay relative to control
[8] = target: Calcium/calmodulin-dependent protein kinase kinase 1 (Homo sapiens) (UniProt Q8N5S9); assay: Inhibition of human recombinant CaMKK1 at 500 nM related to control ULK1
[9] = target: Fibroblast growth factor receptor 2 (Homo sapiens) (UniProt P21802); assay: Inhibition of human recombinant FGFR2 at 500 nM related to control ULK1
[10] = target: Serine/threonine-protein kinase PAK 1 (Homo sapiens) (UniProt Q13153); assay: Inhibition of human recombinant PAK1 at 500 nM in presence of ATP by radiometric assay relative to control
[11] = target: T1, Serine/threonine-protein kinase ULK2 (Homo sapiens) (UniProt Q8IYT8); assay: Inhibition of human recombinant ULK2 at 15 nM in presence of ATP by radiometric assay relative to control
T1 sequence (whole entry): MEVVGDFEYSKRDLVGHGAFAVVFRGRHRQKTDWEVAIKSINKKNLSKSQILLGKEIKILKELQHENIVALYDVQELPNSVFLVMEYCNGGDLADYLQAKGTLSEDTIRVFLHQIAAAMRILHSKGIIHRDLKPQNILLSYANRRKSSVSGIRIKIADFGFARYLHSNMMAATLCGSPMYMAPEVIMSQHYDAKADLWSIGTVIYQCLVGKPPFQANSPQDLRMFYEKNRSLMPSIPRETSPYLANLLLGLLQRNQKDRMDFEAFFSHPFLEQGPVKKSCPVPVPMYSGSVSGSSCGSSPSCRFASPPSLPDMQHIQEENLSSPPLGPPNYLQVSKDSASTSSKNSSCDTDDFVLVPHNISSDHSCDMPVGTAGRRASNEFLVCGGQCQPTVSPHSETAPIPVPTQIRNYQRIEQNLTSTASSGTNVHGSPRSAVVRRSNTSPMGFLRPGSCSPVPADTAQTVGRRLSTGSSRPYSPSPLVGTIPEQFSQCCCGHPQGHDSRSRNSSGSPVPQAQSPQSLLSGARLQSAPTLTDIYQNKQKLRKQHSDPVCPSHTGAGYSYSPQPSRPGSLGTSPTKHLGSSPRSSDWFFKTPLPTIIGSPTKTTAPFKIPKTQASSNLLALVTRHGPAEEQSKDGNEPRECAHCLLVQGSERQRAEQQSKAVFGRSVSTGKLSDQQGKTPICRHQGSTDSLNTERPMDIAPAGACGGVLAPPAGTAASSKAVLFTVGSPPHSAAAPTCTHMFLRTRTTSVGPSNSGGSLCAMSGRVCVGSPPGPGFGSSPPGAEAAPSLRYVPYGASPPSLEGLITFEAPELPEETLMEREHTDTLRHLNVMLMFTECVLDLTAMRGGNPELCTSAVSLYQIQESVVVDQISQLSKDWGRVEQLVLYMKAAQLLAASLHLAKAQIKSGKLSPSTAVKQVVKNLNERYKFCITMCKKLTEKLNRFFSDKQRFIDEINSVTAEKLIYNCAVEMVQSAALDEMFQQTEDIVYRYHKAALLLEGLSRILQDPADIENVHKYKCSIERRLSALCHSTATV

[12] = target: Serine/threonine-protein kinase VRK2 (Homo sapiens) (UniProt Q86Y07); assay: Inhibition of human recombinant VRK2 at 15 nM in presence of ATP by radiometric assay relative to control
Serine/threonine-protein kinase VRK2 (Homo sapiens), sequence (Q86Y07 whole entry): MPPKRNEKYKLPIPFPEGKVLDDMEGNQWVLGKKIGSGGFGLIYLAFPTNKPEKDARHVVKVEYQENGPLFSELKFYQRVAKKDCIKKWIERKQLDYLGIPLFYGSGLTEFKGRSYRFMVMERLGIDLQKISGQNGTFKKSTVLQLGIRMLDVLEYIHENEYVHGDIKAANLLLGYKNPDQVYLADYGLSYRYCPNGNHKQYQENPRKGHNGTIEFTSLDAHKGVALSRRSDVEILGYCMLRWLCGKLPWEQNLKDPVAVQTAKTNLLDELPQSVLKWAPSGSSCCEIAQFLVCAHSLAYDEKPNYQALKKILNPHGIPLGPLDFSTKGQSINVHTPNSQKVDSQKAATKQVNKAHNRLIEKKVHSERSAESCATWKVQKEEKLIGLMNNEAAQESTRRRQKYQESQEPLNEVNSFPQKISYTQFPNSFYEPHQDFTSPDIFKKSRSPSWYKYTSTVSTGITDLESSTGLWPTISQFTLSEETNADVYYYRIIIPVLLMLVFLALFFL

[13] = target: Focal adhesion kinase 1 (Homo sapiens) (UniProt Q05397); assay: Inhibition of human recombinant FAK at 15 nM related to control ULK1
Focal adhesion kinase 1 (Homo sapiens), sequence (Q05397 2-1052 limits assumed): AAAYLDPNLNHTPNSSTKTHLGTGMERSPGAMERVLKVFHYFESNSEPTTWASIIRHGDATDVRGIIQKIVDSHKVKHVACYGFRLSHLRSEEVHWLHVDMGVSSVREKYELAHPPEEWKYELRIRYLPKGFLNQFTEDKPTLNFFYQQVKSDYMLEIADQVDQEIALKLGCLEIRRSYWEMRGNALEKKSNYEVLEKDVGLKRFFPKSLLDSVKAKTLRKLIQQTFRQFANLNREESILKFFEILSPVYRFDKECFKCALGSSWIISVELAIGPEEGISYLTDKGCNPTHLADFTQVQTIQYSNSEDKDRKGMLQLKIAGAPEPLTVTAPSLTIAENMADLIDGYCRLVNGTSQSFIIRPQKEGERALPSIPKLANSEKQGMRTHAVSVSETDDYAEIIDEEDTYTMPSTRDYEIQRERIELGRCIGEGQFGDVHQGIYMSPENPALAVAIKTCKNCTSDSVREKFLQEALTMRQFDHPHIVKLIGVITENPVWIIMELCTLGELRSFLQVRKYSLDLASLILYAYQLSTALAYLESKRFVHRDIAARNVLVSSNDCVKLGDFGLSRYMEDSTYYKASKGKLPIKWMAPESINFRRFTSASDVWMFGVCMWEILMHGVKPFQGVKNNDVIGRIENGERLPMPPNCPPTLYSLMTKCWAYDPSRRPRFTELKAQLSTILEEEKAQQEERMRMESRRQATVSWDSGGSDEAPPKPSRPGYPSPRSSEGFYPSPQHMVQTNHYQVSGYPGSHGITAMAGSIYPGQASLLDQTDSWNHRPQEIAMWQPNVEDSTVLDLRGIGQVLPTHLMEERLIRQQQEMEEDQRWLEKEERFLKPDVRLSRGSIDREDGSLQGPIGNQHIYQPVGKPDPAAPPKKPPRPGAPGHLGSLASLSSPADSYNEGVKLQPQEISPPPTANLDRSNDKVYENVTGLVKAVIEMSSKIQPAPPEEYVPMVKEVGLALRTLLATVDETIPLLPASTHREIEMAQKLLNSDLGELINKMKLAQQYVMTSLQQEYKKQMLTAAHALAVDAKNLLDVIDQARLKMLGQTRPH

[14] = target: Protein-tyrosine kinase 2-beta (Homo sapiens) (UniProt Q14289); assay: Inhibition of human recombinant PYK2 at 15 nM related to control ULK1

Death-associated protein kinase 3 (Homo sapiens), sequence (O43293 whole entry, looked up): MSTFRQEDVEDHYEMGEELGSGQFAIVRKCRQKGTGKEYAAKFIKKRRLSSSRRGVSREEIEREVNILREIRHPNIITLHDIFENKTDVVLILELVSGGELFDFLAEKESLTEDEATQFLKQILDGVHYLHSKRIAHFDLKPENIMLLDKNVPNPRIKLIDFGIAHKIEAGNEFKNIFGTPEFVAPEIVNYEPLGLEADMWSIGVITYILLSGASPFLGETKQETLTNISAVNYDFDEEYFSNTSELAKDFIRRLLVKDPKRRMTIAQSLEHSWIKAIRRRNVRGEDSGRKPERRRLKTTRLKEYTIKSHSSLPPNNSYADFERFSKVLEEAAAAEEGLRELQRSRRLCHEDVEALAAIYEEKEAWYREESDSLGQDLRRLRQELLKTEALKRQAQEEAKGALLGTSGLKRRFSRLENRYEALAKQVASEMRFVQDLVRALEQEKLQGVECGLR

For `O=C(N[C@@H](C1CC1)C(F)(F)F)c1cc(-c2cnn3cc(-c4ccc(F)cc4)cnc23)cs1`, the inhibition [1] was 8%, the inhibition [2] was 19% and the fold change (FC) [3] was 0. The fold change (FC) [4] was 0 and the fold change (FC) [5] was 0.

In the case of `CNC(=O)c1ccccc1Oc1nc(Nc2cc(OC)c(OC)c(OC)c2)ncc1Br`, the inhibition [6] is reported as 42%, the inhibition [7] is reported as 0% and the fold change (FC) [8] is reported as 0.11. The fold change (FC) [9] was 0.28 and the inhibition [10] was 20%.

For `CC(C)[C@H](NC(=O)c1cc(-c2cnn3cc(-c4ccc(OCCN5CCCCC5)cc4)cnc23)cs1)C(F)(F)F`, the inhibition [11] was 73%, the inhibition [12] was 0% and the fold change (FC) [13] was 0. For the same compound, the fold change (FC) [14] was 0.
